In patent US5179107A, “Antiviral quinolinone compounds” (Schering Corporation, priority 1991, dated 1993):
“And” between values parts separate entries of the source, which are not always exact repeats. Equal entries are not always repeated. Where two headings read alike, the source gives them in different places.

Tests used:
[1] = Cytotoxicity, ^3 H-LEU assay (HeLa cell translation); assay type: cell-based; details: human, hela cells, inhibition of cellular translational activity, overnight/24 hrs incubation, read-out: CYTOTOXICITY ^3 H-LEU ASSAY IC50
Method: (§1) HeLa and Vero cell cultures were maintained in Eagles Minimal Essential Medium which was supplemented with glutamine, penicillin, streptomycin and 10% fetal calf serum (10% EMEM). Stock cultures of HSV-2 (strain MS available from ATCC VR-540) were grown in and harvested from Vero cells. Viral stocks were titered in Vero cells according to established procedures.
(§2) HeLa cells were treated with inhibitory compound for 24 hrs, after which levels of translational activity were assayed.
(§3) For assay of translational activity, HeLa cultures were grown to 80% confluency in 96 well microtiter plates, treated with appropriate concentrations of compound in 2% EMEM during an overnight incubation at 37° C., then rinsed with HBSS and overlaid with […] of 2% EMEM containing 8 uCi of tritiated leucine (^3 H-LEU, […], Amersham Corp., Arlington Heights Ill.). After a 1 hr incubation at 36.5° C., the cells were rinsed twice with phosphate buffered saline (PBS) and lysed in 400 ul/well of 1×PBS, 0.5% sodium dodecyl sulphate (SDS). After a 10 min incubation at 36.5° C., the contents of the well were transferred to a well in a Millititer HA microfiltration plate (Millipore Corp., Bedford, Mass.). The TCA insoluble proteins were precipitated onto the filter disc by a 10 min fixation with 5% TCA, followed by filtration under vacuum and three 10 minute rinses with 95% ethanol. The filters were dried at room temperature, cut from the milltitier plate and transferred to scintillation vials. TCA precipitable counts were assayed in 5 ml of Scintisol (Isolab, Akron, Ohio). The inhibitory activity of a compound was plotted versus the concentration and an IC50 value (that concentration of the compound required to decrease cellular translational activity by 50%) was derived for each compound.

HSV-2 (strain MS) = assay: HSV-β-GAL assay: transient expression of beta galactosidase in pON 245^ori- transfected HeLa cells infected with HSV-2; assay type: cell-based; details: multiple numbers = additional tests; for IC50: Human alphaherpesvirus 2, HeLa, 24 h
Method: as §1
Plasmid pON 245^ori- contains the promoter of the HSV-1 thymidine kinase (tk) gene located immediately 5' of the E. coli lac Z gene. In this arrangement, the tk promoter controls transcription from the bacterial gene in transient expression assays. Additionally, an SV40 polyadenylation signal is present at the 3' end of the lac Z gene to allow for the efficient translation of the mRNA in eucaryotic cells. The expression of beta galactosidase in a transient assay using pON 245^ori- is dependent upon superinfection of the transfected cells with HSV. […] For example, see U.S. application Ser. No. 07/435,491 filed Sep. 5, 1989, the disclosure of which is incorporated herein by reference thereto.
HeLa cells were seeded into 96 well microtiter plates and allowed to grow to 80% confluency (approximately 35000 cells/well). One half microgram of plasmid pON 245^ori- DNA was introduced into the cells of each well by the […] precipitation technique (Grahman and Van der Eb, 1973). Four to six hours later, the cells were rinsed with Hank's Balanced Salt Solution (HBSS), overlaid with 10% EMEM and incubated at 37° C. At 24 hrs post-transfection, cells were rinsed, overlaid with 10% EMEM again and re-incubated at 37° C. At 48 hrs. post-transfection, cells were rinsed and overlaid with either EMEM containing 2% fetal calf serum (2% EMEM), 2% EMEM containing HSV-2 (strain MS, Multiplicity of infection [moi]=5 pfu/cell) or 2% EMEM containing HSV-2 and the appropriate concentration of the compound to be tested. Twenty-four hrs later, the cells were harvested and assayed for beta galactosidase activity as described below.
(§4) All determinations of beta galactosidase activity were performed in 96 well microtiter plates. The intracellular level of beta galactosidase activity in each well was determined from cell lysates of the monolayer cultures. […] The generation of fluorescent product was quantified on a Microfluor microfluorimeter (Dynatech) after addition of 0.1M glycine, pH 10.3 (Spaete and Mocarski, 1985). The inhibitory activity of a compound was plotted versus the concentration and an IC50 value (the concentration of compound required to reduce beta glactosidase expression by 50%) was obtained for each compound tested.
The in-vitro anti-HSV activity of compounds of this invention is set forth in Table I. More than one number for a particular entry indicates the results for additional tests.

HSV [2] = details: added to lidocaine or lidocaine hydrochloride; U.S. Pat. No. 4,757,088; cited from earlier work
herpes virus = details: U.S. Pat. No. 4,757,088; cited from earlier work
HSV-2 = details: U.S. Pat. No. 4,757,088; cited from earlier work
HSV-1 = details: U.S. Pat. No. 4,757,088; cited from earlier work
HSV [3] = details: U.S. Pat. No. 4,757,088; cited from earlier work
HSV-2, strain MS = assay: Prophylactic guinea pig model of HSV infection (genital lesions, Maximum Lesion scores); assay type: in vivo; details: subcutaneous, 60 mg per kg, every eight hours for 10 days, from 24 hrs prior to infection
Method: The in vivo assessment of anti-HSV efficacy was determined in the prophylactic guinea pig model of HSV infection described by Stansberry et al (1982). Dosing of guinea pigs was comprised of an initial treatment with test compound given 24 hrs prior to virus infection and subsequent administration of the compound every eight hours (T.I.D.) for a total of 10 days. Test compounds were administered subcutaneously in 0.5% buffered methyl cellulose at a dose of 60 mg per kg body weight of the animal. Animals were monitored daily for the developement of genital lesions and neurological symptomology, both of which were recorded and compared to the results obtained with parallel groups which received placebo or acyclovir treatment. Efficacy was evaluated for each compound by scoring the ability of the compound to ameliorate genital lesions produced by infection with HSV-2, strain MS, expressed as Maximum Lesion scores (MLS) on a scale of 1 (least lesions) to 4 (severe lesions).

CMV (strain Towne) = assay: CMV-β-Gal assay: transient expression of beta galactosidase, plasmid pON249 ΔNH3, in human foreskin fibroblasts; assay type: cell-based; details: multiple numbers = additional tests; for ANTI-CMV ACTIVITY CMV-β-Gal ASSAY IC50: CMV strain Towne, human foreskin fibroblasts; for IC50: Human betaherpesvirus 5, Fibroblast, read-out: ANTI-CMV ACTIVITY CMV-β-Gal ASSAY IC50, CMV strain Towne, human foreskin fibroblasts
Method: as §4
The in-vitro CMV activity of the compounds represented by Formulas 1.1 and 1.3 were determined using the following CMV assay.
Human foreskin fibroblast (HHF) cell cultures were grown in 10% EMEM. CMV (strain Towne received from Stanford University) was grown and titered in HHF cells. Plasmids pON249 ΔNH3, containing CMV promoter genes, were used in the β-galactosidase transient expression assay as shown above.
More than one number for a particular entry indicates the results of additional tests.

[4] = CMV toxicity assay, ^3 H-LEU assay in HFF cells; assay type: cell-based; details: human, read-out: CYTOTOXICITY ^3 H-LEU ASSAY IC50 (CMV toxicity assay)
HeLa cells = assay: Cytotoxicity, ^3 H-LEU assay (HeLa cell translation); assay type: cell-based; details: inhibition of cellular translational activity, overnight/24 hrs incubation, 1440 min
Method: as §1, §2, §3

[5] = HSV-2 strain MS, moi 5 pfu/cell, HeLa cells, 24 hrs, read-out: ANTI-HSV ACTIVITY HSV-β-GAL ASSAY IC50

Compound: Cn1c(=O)c(OC(=O)c2ccc[nH]2)c(OC(=O)c2ccc[nH]2)c2ccccc21 [Formula 1.5]
- CC50 at 24 h [1]: 28 µg/mL

Compound: COc1c(OC)c2ccccc2n(C)c1=O [Formula 1.11]
- CC50 at 24 h [1]: > 100 µg/mL
- IC50 (HSV-2 (strain MS); [5]): 25 µg/mL

Compound: CC(C)(CO)[C@@H](O)C(=O)NCCCO [dexpanthenol]
- effect of addition to lidocaine or lidocaine hydrochloride on their antiviral activity (HSV [2]): significantly enhances the antiviral activity

Compound: CCN(CC)CC(=O)Nc1c(C)cccc1C [lidocaine, 2-(diethylamino)-N-(2,6-dimethylphenyl)acetamide]
- treatment of herpes virus infections of mammals (herpes virus): able to treat herpes virus infections of mammals
- antiviral activity in cell culture against HSV-2 (HSV-2): antiviral agent
- antiviral activity in cell culture against HSV-1 (HSV-1): antiviral agent
- treatment of HSV oral and genital lesions in humans (HSV [3]): particularly effective

Compound: Cn1c(=O)c(O)c(O)c2ccccc21 [Formula 1.1]
- In-vivo anti-HSV activity (HSV-2, strain MS): inactive
- ANTI-CMV ACTIVITY CMV-β-Gal ASSAY IC50 (CMV (strain Towne)): 1 µg/mL
- IC50 (CMV (strain Towne)): 1.5 µg/mL
- CC50 at 24 h [1]: 21 µg/mL
- CC50 [4]: 36 µg/mL
- IC50 (HSV-2 (strain MS); read-out: ANTI-HSV ACTIVITY HSV-β-GAL ASSAY IC50, HSV-2 strain MS, moi 5 pfu/cell, HeLa cells, 24 hrs): < 3 µg/mL

Compound: CCC(=O)Oc1c(OC(=O)CC)c2ccccc2n(C)c1=O [Formula 1.10]
- CC50 at 24 h [1]: 34 µg/mL
- IC50 (HSV-2 (strain MS); [5]): 17 µg/mL

Compound: Cn1cccc1C(=O)Oc1c(OC(=O)c2cccn2C)c2ccccc2n(C)c1=O [Formula 1.4]
- CC50 at 24 h [1]: > 100 µg/mL

Compound: CC(C)(CO)[C@@H](O)C(=O)NCCC(=O)O [pantothenic acid]
- effect of addition to lidocaine or lidocaine hydrochloride on their antiviral activity (HSV [2]): significantly enhances the antiviral activity

Compound: O=c1c(O)c(O)c2ccccc2n1-c1ccccc1 [Formula 1.6]
- CC50 at 24 h [1]: 8 µg/mL
- IC50 (HSV-2 (strain MS); [5]): 9 µg/mL

Compound: Cn1c(=O)c(OC(=O)c2ccccc2)c(OC(=O)c2ccccc2)c2ccccc21 [Formula 1.9]
- CC50 at 24 h [1]: 58 µg/mL
- IC50 (HSV-2 (strain MS); [5]): 20 µg/mL

Compound: Cn1c(=O)c(OC(=O)c2cccs2)c(OC(=O)c2cccs2)c2ccccc21 [Formula 1.8]
- CC50 at 24 h [1]: > 50 µg/mL
- IC50 (HSV-2 (strain MS); [5]): 19 µg/mL

Compound: CCCCCCCn1c(=O)c(O)c(O)c2ccccc21 [Formula 1.3]
- ANTI-CMV ACTIVITY CMV-β-Gal ASSAY IC50 (CMV (strain Towne)): 9 µg/mL
- IC50 (CMV (strain Towne)): 13 µg/mL
- CC50 at 24 h [1]: 37 µg/mL
- CYTOTOXICITY ^3 H-LEU ASSAY IC50 (HeLa cells): 30 µg/mL
- CC50 [4]: 25 µg/mL
- ANTI-HSV ACTIVITY HSV-β-GAL ASSAY IC50 (HSV-2 (strain MS); HSV-2 strain MS, moi 5 pfu/cell, HeLa cells, 24 hrs): 2 µg/mL and 3 µg/mL
- IC50 (HSV-2 (strain MS); [5]): < 3 µg/mL

Compound: Cn1c(=O)c(OC(=O)c2ccc(Br)o2)c(OC(=O)c2ccc(Br)o2)c2ccccc21 [Formula 1.7]
- CC50 at 24 h [1]: > 50 µg/mL
- IC50 (HSV-2 (strain MS); [5]): 10 µg/mL

Compound: O=c1c(O)c(O)c2ccccc2n1Cc1ccccc1 [Formula 1.2]
- CC50 at 24 h [1]: 32 µg/mL
